Reference: patent US20240216281A1, “MANUFACTURING METHOD OF MEDICATION” (YUNG SHIN PHARM. IND. CO., LTD., priority 2022, published 2024)

Assay: particle size distribution (PSD) of crystals within the medication
Type: physicochemical
Conditions: first embodiment: dry powder filling technology

SMILES	10% of the crystals having a particle size (D10) of less than	50% of the crystals having a particle size (D50) of less than	90% of the crystals having a particle size (D90) of less than	90% of the crystals having a particle size (D90) of less than (unit not given)
OCc1ccc(-c2nn(Cc3ccccc3)c3ccccc23)o1 [YC-1 compound]	less than 0.648 μm	less than 14.061 μm	less than 215.136 μm	–
CC1(C)O[C@@H]2C[C@H]3[C@@H]4CCC5=CC(=O)C=C[C@]5(C)[C@@]4(F)[C@@H](O)C[C@]3(C)[C@]2(C(=O)CO)O1 [triamcinolone acetonide]	less than 4.444 μm	less than 11.189 μm	–	less than 30.504
